Source: PubChem BioAssay (NCI)
“And” between values parts separate entries of the source, which are not always exact repeats. Identical values can stand only once.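 Following 48 hours of exposure in 96-well plates, responses at five concentrations were used to interpolate endpoints linearly. GI50 = concentration required for 50% inhibition of growth. TGI marks complete inhibition of growth.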

How the values were obtained:
Experiment in all cases: NCI tumour cell line growth inhibition, 48 h
CAKI-1 renal = test system: CAKI-1 renal
MALME-3M melanoma = test system: MALME-3M melanoma
OVCAR-5 ovarian = test system: OVCAR-5 ovarian
SK-MEL-28 melanoma = test system: SK-MEL-28 melanoma
HOP-62 NSCLC = test system: HOP-62 NSCLC
HCT-116 colon = test system: HCT-116 colon
U251 CNS = test system: U251 CNS
UACC-257 melanoma = test system: UACC-257 melanoma
K-562 leukemia = test system: K-562 leukemia
OVCAR-4 ovarian = test system: OVCAR-4 ovarian

| SMILES | GI50 (CAKI-1 renal) | TGI (CAKI-1 renal) | GI50 (MALME-3M melanoma) | TGI (MALME-3M melanoma) | GI50 (OVCAR-5 ovarian) | TGI (OVCAR-5 ovarian) | GI50 (SK-MEL-28 melanoma) | TGI (SK-MEL-28 melanoma) | GI50 (HOP-62 NSCLC) | TGI (HOP-62 NSCLC) | GI50 (HCT-116 colon) | TGI (HCT-116 colon) | GI50 (U251 CNS) | TGI (U251 CNS) | GI50 (UACC-257 melanoma) | TGI (UACC-257 melanoma) | GI50 (K-562 leukemia) | TGI (K-562 leukemia) | GI50 (OVCAR-4 ovarian) | TGI (OVCAR-4 ovarian) |
| --- | --- | --- | --- | --- | --- | --- | --- | --- | --- | --- | --- | --- | --- | --- | --- | --- | --- | --- | --- | --- |
| CNc1nc(N(C)C)nc(N(C)C)n1 | > 100 µM and 926 µM | > 100 µM and 2620 µM | > 100 µM and 1160 µM | > 100 µM and 2110 µM | > 100 µM and 909 µM | > 100 µM and 3960 µM | > 100 µM and 1240 µM | > 100 µM and 2700 µM | > 100 µM and 970 µM | > 100 µM and 1890 µM | > 100 µM and 809 µM | > 100 µM and 1930 µM | > 100 µM and 1150 µM | > 100 µM and 2950 µM | > 100 µM and 1640 µM | > 100 µM and 3580 µM | > 100 µM and 831 µM | > 100 µM and 3230 µM | > 100 µM and 431 µM | > 100 µM and 1260 µM |
| C[CH2][Sn]([CH2]C)([O]C(=O)c1cccc(F)c1)[O][Sn]([CH2]C)([CH2]C)[O]C(=O)c1cccc(F)c1 | 11.7 µM | 24.1 µM | 14.1 µM | 27.3 µM | 25.4 µM | 50.9 µM | 16.7 µM | 30.5 µM | 37.3 µM | > 100 µM | 17.8 µM | 32.5 µM | 16.9 µM | 30.6 µM | 16.8 µM | 30.9 µM | 18 µM | 93.4 µM | 22.8 µM | 46.7 µM |
| COc1ccc(/C=C/C(=O)c2cc3c(N)c(C(=O)Nc4ccccc4)sc3nc2C)cc1 | 0.258 µM | > 50 µM | 1.7 µM | > 50 µM | 0.385 µM | > 50 µM | 2.16 µM | > 45.1 µM | 0.252 µM | > 22.5 µM | 0.189 µM | 5.1 µM | 0.325 µM | 8.24 µM | 18 µM | > 50 µM | 0.14 µM | > 50 µM | 0.472 µM | > 50 µM |
| S=C(Nc1ccccc1)N(Cc1ccccc1)c1ccccc1 |  | 90.3 µM |  | 37.2 µM |  | > 100 µM |  | 78.4 µM |  | > 100 µM |  | > 100 µM |  | > 100 µM |  | 54.6 µM |  | > 100 µM |  | 93.6 µM |
| CC12CC3CC(C1)CC(N=[N+]=[N-])(C3)C2 |  | > 100 µM |  | > 100 µM |  | > 100 µM |  | > 100 µM |  | > 100 µM |  | > 100 µM |  | > 100 µM |  | > 100 µM |  | > 100 µM |  | > 100 µM |
| CCOC(=O)C#Cc1c(CC(=O)OCC)nnn1[C@H]1O[C@@H](CO)[C@@H]2OC(C)(C)O[C@@H]21 | 1.71 µM | 3.15 µM | 2 µM | 4.16 µM | 12.1 µM | 27.3 µM | 3.33 µM | 11.4 µM | 18.2 µM | 34.2 µM | 2.06 µM | 4.1 µM | 14 µM | 27.6 µM | 4.47 µM | 12.7 µM | 3 µM | 11.1 µM | 2.11 µM | 5.43 µM |
| N=C(N)c1ccc(-c2ccc(-c3cccs3)s2)nc1 | 2.13 µM | 6.83 µM | 1.96 µM | 3.57 µM | 1.26 µM | 5.68 µM | 1.7 µM | 3.65 µM | 1.94 µM | 5.17 µM | 1.38 µM | 2.79 µM | 1.66 µM | 3.35 µM | 1.74 µM | 3.5 µM | 1.61 µM | 3.81 µM | 0.944 µM | 3.32 µM |
| OC(CNC1CCCC1)Cn1c2ccccc2c2ccccc21 (stereo not given) | > 100 µM | > 100 µM | 37 µM | > 100 µM | 35.9 µM | > 100 µM | > 100 µM | > 100 µM | 18.9 µM | 42.6 µM | 67.3 µM | > 100 µM | 21.5 µM | 56.6 µM | > 100 µM | > 100 µM | > 100 µM | > 100 µM | > 100 µM | > 100 µM |
| O=C1C[C@@H]2CCCC[C@@H]2C12SCCS2 |  | > 100 µM |  | > 100 µM |  | > 100 µM |  | > 100 µM |  | > 100 µM |  | > 100 µM |  | > 100 µM |  | > 100 µM |  | > 100 µM |  | > 100 µM |
| CCCCCN(CCCCC)CC(O)c1cc2c(c3ccccc13)CCCC2 (stereo not given) | 3.44 µM and 4.29 µM | 10.9 µM and 20.2 µM | 3.71 µM and 10.4 µM | 15.6 µM and 24.6 µM | 11.1 µM and 13.5 µM | 23.6 µM and 31.5 µM | 12.1 µM | 25.5 µM | 3.62 µM and 12.1 µM | 12.9 µM and 25.7 µM | 2.7 µM and 2.24 µM | 12.8 µM and 13.1 µM | 6.33 µM and 11.5 µM | 20.3 µM and 29.6 µM | 4.88 µM and 13.8 µM | 17.5 µM and 30.2 µM | 2.56 µM and 16.3 µM | 10.9 µM and > 100 µM | 3.16 µM and 9.19 µM | 16 µM and 30.1 µM |
| CS/C(c1ccccc1)=[N+](/C)[O-] |  | > 100 µM |  | > 100 µM |  | > 100 µM |  | > 100 µM |  | > 100 µM |  | > 100 µM |  | > 100 µM |  | > 100 µM |  | > 100 µM |  | > 100 µM |
| Cc1ccc(C2=C(c3ccccc3)C(Br)(c3ccccc3)C(c3ccccc3)=C2c2ccc(C)cc2)cc1 |  | > 100 µM |  | > 100 µM |  | > 100 µM |  | > 100 µM |  | > 100 µM |  | > 100 µM |  | > 100 µM |  | > 100 µM |  | > 100 µM |  | > 100 µM |
| COC(=O)[C@@]1(O)C[C@H]2O[C@]1(C)n1c3ccccc3c3c4c(c5c6ccccc6n2c5c31)C(=O)NC4 | 0.0149 µM | 0.217 µM | 0.186 µM | 1.52 µM | 0.21 µM | 8.12 µM | 0.203 µM | 1.26 µM | 0.169 µM | 1.81 µM | 0.102 µM | 2.24 µM | 1.02 µM | 3.05 µM | 0.527 µM | 3.33 µM | 0.0397 µM | 1.28 µM | 1.24 µM | 2.76 µM |
| N#CC1=C(N)Oc2c(sc3c(F)cccc23)C1c1ccc(F)cc1 (stereo not given) | 0.508 µM | 15.9 µM | 0.602 µM | 22.2 µM | 2.95 µM | 14.6 µM | 1.91 µM | 19.7 µM | 0.76 µM | 19.2 µM | 0.492 µM | 13 µM | 0.569 µM | 15.3 µM | 16.6 µM | 39.5 µM | 0.354 µM | 18.4 µM | 2.03 µM | 16.6 µM |
